Results: BigSolDB 2.1

CCCCCOC(=O)Nc1nc(=O)n([C@@H]2O[C@H](C)[C@@H](O)[C@H]2O)cc1F
solubility (mole fraction) (in 2-ethylhexanol, 278.02 K): 0.0011
solubility (mole fraction) (in 2-ethylhexanol, 282.93 K): 0.0013
solubility (mole fraction) (in 2-ethylhexanol, 287.88 K): 0.0019
solubility (mole fraction) (in 2-ethylhexanol, 292.57 K): 0.0027
solubility (mole fraction) (in 2-ethylhexanol, 297.38 K): 0.0036
solubility (mole fraction) (in 2-ethylhexanol, 302.24 K): 0.005
solubility (mole fraction) (in 2-ethylhexanol, 307.13 K): 0.0069
solubility (mole fraction) (in 2-ethylhexanol, 312.04 K): 0.0096
solubility (mole fraction) (in 2-ethylhexanol, 316.73 K): 0.0125
solubility (mole fraction) (in 2-ethylhexanol, 321.76 K): 0.0173
solubility (mole fraction) (in 2-octanol, 278.04 K): 0.001
solubility (mole fraction) (in 2-octanol, 282.95 K): 0.0014
solubility (mole fraction) (in 2-octanol, 287.9 K): 0.0018
solubility (mole fraction) (in 2-octanol, 292.55 K): 0.0025
solubility (mole fraction) (in 2-octanol, 298.45 K): 0.0036
solubility (mole fraction) (in 2-octanol, 302.3 K): 0.0047
solubility (mole fraction) (in 2-octanol, 307.15 K): 0.0064
solubility (mole fraction) (in 2-octanol, 312.05 K): 0.0087
solubility (mole fraction) (in 2-octanol, 317.75 K): 0.0116
solubility (mole fraction) (in 2-octanol, 322.2 K): 0.0151
solubility (mole fraction) (in ethanol, 278.25 K): 0.0099
solubility (mole fraction) (in ethanol, 282.86 K): 0.0123
solubility (mole fraction) (in ethanol, 287.85 K): 0.017
solubility (mole fraction) (in ethanol, 292.84 K): 0.0247
solubility (mole fraction) (in ethanol, 297.75 K): 0.0353
solubility (mole fraction) (in ethanol, 302.55 K): 0.048
solubility (mole fraction) (in ethanol, 307.25 K): 0.0676
solubility (mole fraction) (in ethanol, 312.14 K): 0.0933
solubility (mole fraction) (in ethanol, 317.35 K): 0.127
solubility (mole fraction) (in ethanol, 322.13 K): 0.166
solubility (mole fraction) (in ethylene glycol, 278.65 K): 0.01
solubility (mole fraction) (in ethylene glycol, 283.15 K): 0.0125
solubility (mole fraction) (in ethylene glycol, 287.95 K): 0.017
solubility (mole fraction) (in ethylene glycol, 293 K): 0.021
solubility (mole fraction) (in ethylene glycol, 297.95 K): 0.0267
solubility (mole fraction) (in ethylene glycol, 302.95 K): 0.0348
solubility (mole fraction) (in ethylene glycol, 307.65 K): 0.0437
solubility (mole fraction) (in ethylene glycol, 312.1 K): 0.0539
solubility (mole fraction) (in ethylene glycol, 316.85 K): 0.0661
solubility (mole fraction) (in ethylene glycol, 322.25 K): 0.0877
solubility (mole fraction) (in isobutanol, 278.26 K): 0.0012
solubility (mole fraction) (in isobutanol, 283.15 K): 0.0018
solubility (mole fraction) (in isobutanol, 288.1 K): 0.0029
solubility (mole fraction) (in isobutanol, 293.38 K): 0.0046
solubility (mole fraction) (in isobutanol, 298.02 K): 0.007
solubility (mole fraction) (in isobutanol, 302.85 K): 0.0107
solubility (mole fraction) (in isobutanol, 307.4 K): 0.0156
solubility (mole fraction) (in isobutanol, 312.25 K): 0.0232
solubility (mole fraction) (in isobutanol, 316.95 K): 0.0336
solubility (mole fraction) (in isobutanol, 321.95 K): 0.0492
solubility (mole fraction) (in isopentanol, 278.25 K): 0.0027
solubility (mole fraction) (in isopentanol, 282.97 K): 0.0038
solubility (mole fraction) (in isopentanol, 288.76 K): 0.0057
solubility (mole fraction) (in isopentanol, 292.64 K): 0.0074
solubility (mole fraction) (in isopentanol, 297.33 K): 0.0102
solubility (mole fraction) (in isopentanol, 302.27 K): 0.0141
solubility (mole fraction) (in isopentanol, 307.06 K): 0.0193
solubility (mole fraction) (in isopentanol, 312.04 K): 0.0267
solubility (mole fraction) (in isopentanol, 316.78 K): 0.0361
solubility (mole fraction) (in isopentanol, 321.47 K): 0.0485
solubility (mole fraction) (in isopropanol, 277.98 K): 0.0011
solubility (mole fraction) (in isopropanol, 283.49 K): 0.0016
solubility (mole fraction) (in isopropanol, 288.07 K): 0.0024
solubility (mole fraction) (in isopropanol, 293.16 K): 0.0037
solubility (mole fraction) (in isopropanol, 297.34 K): 0.0053
solubility (mole fraction) (in isopropanol, 302.29 K): 0.0079
solubility (mole fraction) (in isopropanol, 307.07 K): 0.0115
solubility (mole fraction) (in isopropanol, 312.14 K): 0.017
solubility (mole fraction) (in isopropanol, 316.88 K): 0.0241
solubility (mole fraction) (in isopropanol, 321.47 K): 0.034
solubility (mole fraction) (in n-butanol, 278.1 K): 0.0021
solubility (mole fraction) (in n-butanol, 283.03 K): 0.003
solubility (mole fraction) (in n-butanol, 288.02 K): 0.0045
solubility (mole fraction) (in n-butanol, 293.53 K): 0.007
solubility (mole fraction) (in n-butanol, 298 K): 0.0106
solubility (mole fraction) (in n-butanol, 303.15 K): 0.016
solubility (mole fraction) (in n-butanol, 308.25 K): 0.0239
solubility (mole fraction) (in n-butanol, 312.35 K): 0.0351
solubility (mole fraction) (in n-butanol, 317.4 K): 0.051
solubility (mole fraction) (in n-butanol, 322.49 K): 0.077
solubility (mole fraction) (in n-heptanol, 278 K): 0.0018
solubility (mole fraction) (in n-heptanol, 283.15 K): 0.0025
solubility (mole fraction) (in n-heptanol, 288.33 K): 0.0036
solubility (mole fraction) (in n-heptanol, 292.53 K): 0.0047
solubility (mole fraction) (in n-heptanol, 297.63 K): 0.0065
solubility (mole fraction) (in n-heptanol, 303.3 K): 0.0092
solubility (mole fraction) (in n-heptanol, 308.35 K): 0.0126
solubility (mole fraction) (in n-heptanol, 313.25 K): 0.017
solubility (mole fraction) (in n-heptanol, 318.05 K): 0.0226
solubility (mole fraction) (in n-heptanol, 322.85 K): 0.0299
solubility (mole fraction) (in n-hexanol, 278.1 K): 0.0018
solubility (mole fraction) (in n-hexanol, 284.33 K): 0.0029
solubility (mole fraction) (in n-hexanol, 287.97 K): 0.0038
solubility (mole fraction) (in n-hexanol, 293.85 K): 0.006
solubility (mole fraction) (in n-hexanol, 297.6 K): 0.008
solubility (mole fraction) (in n-hexanol, 303.55 K): 0.0125
solubility (mole fraction) (in n-hexanol, 308.55 K): 0.0173
solubility (mole fraction) (in n-hexanol, 313.15 K): 0.0241
solubility (mole fraction) (in n-hexanol, 317.75 K): 0.0333
solubility (mole fraction) (in n-hexanol, 322.25 K): 0.0461
solubility (mole fraction) (in n-octanol, 278.65 K): 0.0022
solubility (mole fraction) (in n-octanol, 283 K): 0.003
solubility (mole fraction) (in n-octanol, 287.98 K): 0.004
solubility (mole fraction) (in n-octanol, 292.95 K): 0.0055
solubility (mole fraction) (in n-octanol, 298.35 K): 0.0076
solubility (mole fraction) (in n-octanol, 302.94 K): 0.01
solubility (mole fraction) (in n-octanol, 307.5 K): 0.0131
solubility (mole fraction) (in n-octanol, 312.35 K): 0.0173
solubility (mole fraction) (in n-octanol, 317.05 K): 0.0226
solubility (mole fraction) (in n-octanol, 322.05 K): 0.0307
solubility (mole fraction) (in n-pentanol, 278.2 K): 0.002
solubility (mole fraction) (in n-pentanol, 282.97 K): 0.0031
solubility (mole fraction) (in n-pentanol, 288.26 K): 0.0051
solubility (mole fraction) (in n-pentanol, 292.64 K): 0.0071
solubility (mole fraction) (in n-pentanol, 297.33 K): 0.0101
solubility (mole fraction) (in n-pentanol, 302.27 K): 0.0146
solubility (mole fraction) (in n-pentanol, 307.06 K): 0.0205
solubility (mole fraction) (in n-pentanol, 312.04 K): 0.0292
solubility (mole fraction) (in n-pentanol, 316.78 K): 0.0404
solubility (mole fraction) (in n-pentanol, 321.47 K): 0.0555
solubility (mole fraction) (in n-propanol, 278 K): 0.0024
solubility (mole fraction) (in n-propanol, 283.06 K): 0.0037
solubility (mole fraction) (in n-propanol, 287.98 K): 0.0055
solubility (mole fraction) (in n-propanol, 292.87 K): 0.0088
solubility (mole fraction) (in n-propanol, 297.33 K): 0.0132
solubility (mole fraction) (in n-propanol, 302.29 K): 0.0205
solubility (mole fraction) (in n-propanol, 307.07 K): 0.0309
solubility (mole fraction) (in n-propanol, 312.14 K): 0.0471
solubility (mole fraction) (in n-propanol, 316.88 K): 0.0687
solubility (mole fraction) (in n-propanol, 321.47 K): 0.0997
solubility (mole fraction) (in sec-butanol, 278.15 K): 0.001
solubility (mole fraction) (in sec-butanol, 283.17 K): 0.0016
solubility (mole fraction) (in sec-butanol, 288.13 K): 0.0026
solubility (mole fraction) (in sec-butanol, 293.35 K): 0.0043
solubility (mole fraction) (in sec-butanol, 298.44 K): 0.0065
solubility (mole fraction) (in sec-butanol, 302.9 K): 0.0093
solubility (mole fraction) (in sec-butanol, 307.65 K): 0.014
solubility (mole fraction) (in sec-butanol, 312.44 K): 0.0207
solubility (mole fraction) (in sec-butanol, 317.25 K): 0.0301
solubility (mole fraction) (in sec-butanol, 321.9 K): 0.0428
solubility (mole fraction) (in tert-butanol, 299.65 K): 0.0078
solubility (mole fraction) (in tert-butanol, 302.75 K): 0.0096
solubility (mole fraction) (in tert-butanol, 307.43 K): 0.0139
solubility (mole fraction) (in tert-butanol, 312.2 K): 0.0199
solubility (mole fraction) (in tert-butanol, 317.04 K): 0.0294
solubility (mole fraction) (in tert-butanol, 321.65 K): 0.0423
solubility (mole fraction) (in water, 278.25 K): 0.0009
solubility (mole fraction) (in water, 283.2 K): 0.001
solubility (mole fraction) (in water, 288.3 K): 0.001
solubility (mole fraction) (in water, 293.25 K): 0.0011
solubility (mole fraction) (in water, 298.25 K): 0.0012
solubility (mole fraction) (in water, 302.8 K): 0.0013
solubility (mole fraction) (in water, 308 K): 0.0014
solubility (mole fraction) (in water, 312.95 K): 0.0015
solubility (mole fraction) (in water, 317.65 K): 0.0016
solubility (mole fraction) (in water, 322.75 K): 0.0017
